Data set [1] deals with Candida albicans MTCC 1637 (Wild Type). Briefly: disc diffusion assay, wild type Candida albicans. It counts as cell-based. As to conditions: for zone of inhibition at 80 µg/disc: MTCC1637, read-out: Net zone of growth inhibition. Here is the method:
(§1) The drug resistance property of the mutants was studied by standardized disc diffusion assay (Bauer at al 1966, American Journal of Clinical Pathology 45: 493-496) with slight modifications. The discs were prepared (5 mm diameter made of Whatman #3 filter paper) by impregnating 8 μl of test compound and placing them on pre-inoculated agar surface.
(§2) A disc containing only the solvent was used as the control. A zone of growth inhibition surrounding the disc is indicative of the […] nature of the strains to antibiotics.

For data set [2], the system named is Candida albicans mutant strain Clo 28R. Nature of the data set: microbe, parasite or virus in culture. It counts as cell-based. Here is the method: (§3) C. albicans was grown to log phase in Sabouraud's dextrose broth (5 ml) for 48 hrs at 37° C. in a shaker at 250 rpm. The cells were pelleted by centrifugation at 5000 rpm at 4° C. and the pellet was dissolved in 5 ml phosphate buffered saline PBS (6.8 pH). The culture was divided in to five groups of 1 ml each in eppendrof tubes.
(§4) Ethyl methane sulfonate (EMS) was added to each of the culture tube @ 0.1% (v/v) and allowed to grow for 40 min. Then the mutagen was completely washed off thrice by repeatedly pelleting the cells and re-dissolving in PBS. The mutagenized stocks was then diluted in Sabouraud's dextrose broth two folds and allowed to grow for 6 hrs at 37° C. in a shaker at 250 rpm. Titre of the cells before treatment with EMS and immediately after treatment with EMS was calculated to obtain the killing percentage in each of the five tubes. The mutagenized and fixed cultures were then plated in Sabouraud's dextrose agar containing different concentration of amphotericin, nystatin and clotrimazole.
(§5) The colonies found growing after 5th day from each of the five mutagenized stocks were then purified thrice separately by streaking in the same medium containing the antibiotics.

Data set [3] has as its system Candida albicans mutant strain Clo 31R. Nature of the data set: microbe, parasite or virus in culture. The data set is classed as cell-based. Here is the method: as §3, §4, §5
Data set [4] deals with Candida albicans mutant strain NYS 26R. Nature of the data set: microbe, parasite or virus in culture. The data set is classed as cell-based. Here is the method: as §3, §4, §5
The test system of data set [5] is Candida albicans mutant strain NYS 4R. Briefly: microbe, parasite or virus in culture. It counts as cell-based. On the procedure:
as §3, §4, §5

Data set [6] has as its system Candida albicans mutant strain Amph 100R. Briefly: disc diffusion assay, mutant Amph 100R. The data set is classed as cell-based. As to conditions: for zone of inhibition at 80 µg/disc: Candida albicans, read-out: Net zone of growth inhibition. On the procedure: as §3, §4, §5
(In agar diffusion tests the substance spreads into inoculated agar from a disc or well.)

The subject of data set [7] is Saccharomyces Cerevisiae ABC 287 (WT). Briefly: disc diffusion assay, wild type Saccharomyces cerevisiae. It counts as cell-based. As to conditions: 80 μg/disc; for zone of inhibition at 80 µg/disc: read-out: Net zone of growth inhibition. On the procedure:
as §1, §2
(§6) The pure compound isolated was then tested against polyene and azole resistant strains of Candida albicans. […] In another experiment well-defined amphotericin and nystatin resistant strains of Saccharomyces cerevisiae were used in the assay. These strains designated as erg 2 and erg 6 carry mutations in the ergosterol biosynthetic pathway and therefore are unable to synthesize ergosterol which are the binding site of polyene drugs. Therefore absence of erostreol results in polyene resistance.

Data set [8] has as its system Saccharomyces cerevisiae erg 2 (amphotericin and nystatin resistant). Briefly: disc diffusion assay, S. cerevisiae erg 2. To be noted: 80 μg/disc. Here is the method:
as §1, §2, §6

For data set [9], the system named is Saccharomyces cerevisiae erg 6 (amphotericin and nystatin resistant). As to conditions: 80 μg/disc. On the procedure: as §1, §2, §6
In data set [10] the test system is Candida albicans mutant strain Amph A8R. Nature of the data set: microbe, parasite or virus in culture. It counts as cell-based. On the procedure: as §3, §4, §5
The subject of data set [11] is Candida albicans mutant strain Amph C6R. Nature of the data set: microbe, parasite or virus in culture. It counts as cell-based. On the procedure:
as §3, §4, §5

Data set [12] has as its system Candida albicans mutant strain Amph C7R. Nature of the data set: microbe, parasite or virus in culture. It counts as cell-based. On the procedure:
as §3, §4, §5

Data set [13] concerns Candida albicans mutant strain Amph D1R. Briefly: microbe, parasite or virus in culture. It counts as cell-based. On the procedure: as §3, §4, §5
Data set [14] deals with liver (WRL-68) cancer cell line. Nature of the data set: MTT cytotoxicity testing in vitro, WRL-68. The data set is classed as cell-based. As to conditions: Homo sapiens, WRL68, 6 h exposure then 48 h. Here is the method:
(§7) Cytotoxicity testing in vitro was done by the method of Woerdenbag et al.,1993; J.Nat.Prod. 56 (6): 849-856). 2×10^3 cells/well were incubated in the 5% CO2 incubator for 24 h to enable them to adhere properly to the 96 well polysterene microplate (Grenier, Germany). Test compounds dissolved in 100% DMSO (Merck, Germany) in at least five doses were added and left for 6 h after which the compound plus media was replaced with fresh media and the cells were incubated for another 48 h in the CO2 incubator at 37° C. […] Sigma M 2128] was added, and plates were incubated at 37° C. for 4 h. 100 μl dimethyl sulfoxide (DMSO, Merck, Germany) were added to all wells and mixed thoroughly to dissolve the dark blue crystals. After a few minutes at mom temperature to ensure that all is crystals were dissolved, the plates were read on a SpectraMax 190 Mcroplate Elisa reader (Molecular Devices Inc., USA), at 570 nm. Plates were normally read within 1 h of adding the DMSO.
A general note: Formazan colour is commonly taken as a measure of viable cells.

In data set [15] the test system is (MCF-7) cancer cell line. Briefly: MTT cytotoxicity testing in vitro, MCF-7. The data set is classed as cell-based. As to conditions: Homo sapiens, MCF7, 6 h exposure then 48 h. On the procedure: as §7
The test system of data set [16] is ovarian (MCF-7) cancer cell line. Nature of the data set: MTT cytotoxicity testing in vitro, MCF-7. The data set is classed as cell-based. As to conditions: Homo sapiens, MCF7, 6 h exposure then 48 h. On the procedure: as §7
Data set [17] concerns ovarian (PA-1) cancer cell line. Nature of the data set: MTT cytotoxicity testing in vitro, PA-1. The data set is classed as cell-based. To be noted: Homo sapiens, 6 h exposure then 48 h. Here is the method:
as §7

For data set [18], the system named is colon (Caco-2) cancer cell line. Nature of the data set: MTT cytotoxicity testing in vitro, Caco-2. The data set is classed as cell-based. To be noted: Homo sapiens, Caco2, 6 h exposure then 48 h. Here is the method:
Cytotoxicity testing in vitro was done by the method of Woerdenbag et al.,1993; J.Nat.Prod. […] 2×10^3 cells/well were incubated in the 5% CO2 incubator for 24 h to enable them to adhere properly to the 96 well polysterene microplate (Grenier, Germany). […] Then, 10 μl MTT [3-(4,5-dimethylthiazol-2-yl)-2,5-diphenyltetrazolium bromide; Sigma M 2128] was added, and plates were incubated at 37° C. for 4 h. 100 μl dimethyl sulfoxide (DMSO, Merck, Germany) were added to all wells and mixed thoroughly to dissolve the dark blue crystals. […] Plates were normally read within 1 h of adding the DMSO.

Data set [19] has as its system oral (KB 403) cancer cell line. Nature of the data set: MTT cytotoxicity testing in vitro, KB 403. It counts as cell-based. To be noted: Homo sapiens, KB403, 6 h exposure then 48 h. On the procedure:
as §7

Data set [20] can be described thus: in-vitro ergosterol binding assay.
Text: Therefore, the ability of lichen compounds to bind to ergosterol was also investigated using in-vitro ergosterol binding assay (Antonio & Molinski 1993; J.Natl.Prod.56:54-61).
In data set [21] the test system is polyene and azole resistant strains of Candida albicans. The data set is classed as cell-based.
Experimental: Ethanol extract was prepared and tested against Candida albicans MTCC 1637 (equivalent to ATCC 18804) the fungi that cause different forms of candidiasis in humans and drug resistant mutants of the fungi.
Data set [22] has as its system polyene drug resistant Saccharomyces cerevisiae. Briefly: activity against polyene resistant S. cerevisiae (as a group). To be noted: erg 2 and erg 6 strains. The data set is classed as cell-based. The text has this: Therefore absence of erostreol results in polyene resistance.
Data set [23] has as its system Saccharomyces cerevisiae. As to conditions: Caccamese et al (1985); cited from earlier work.
Where [24] appears, read: Candida albicans MTCC (Wild Type), 80 μg/disc.
[25] abbreviates: Candida albicans, read-out: Net zone of growth inhibition.

These results are taken from patent publication US20040198815A1, “Antimicrobial and anticancer properties of methyl-beta-orcinolcarboxylate from lichen (Everniastrum cirrhatum)” (priority 2003, published 2004).

In brackets after ≈: the same amount, converted by molar mass.

With `C[C@@H]1[C@H](O)[C@@H](C)/C=C/C=C/C=C/C=C/C=C/C=C/C=C/[C@H](O[C@@H]2O[C@H](C)[C@@H](O)[C@H](N)[C@@H]2O)C[C@@H]2O[C@](O)(C[C@@H](O)C[C@@H](O)[C@H](O)CC[C@@H](O)C[C@@H](O)CC(=O)O[C@H]1C)C[C@H](O)[C@H]2C(=O)O` [Amphotericin], the zone of inhibition at 80 µg/disc was 9 mm in data set [1] (setting [24]); 12 mm in data set [2] (setting [25]); 6 mm in data set [3] (setting [25]); 4 mm in data set [4] (setting [25]); 2 mm in [5] (setting [25]); 2 mm in data set [6]. For the same compound, the zone of inhibition at 80 µg/disc in data set [7] was 8 mm. Further, the results for the “Net zone of growth inhibition” value in data set [8] and in [9] were 6 mm and 5 mm, respectively.

Take `Clc1ccccc1C(c1ccccc1)(c1ccccc1)n1ccnc1` [Clotrimazole, reference compound]: the zone of inhibition at 80 µg/disc stood at 17 mm in data set [1] (setting [24]); 22 mm in data set [10] (setting [25]); 10 mm in [11] (setting [25]); 12 mm in data set [12] (setting [25]); 27 mm in data set [13] (setting [25]); 14 mm in data set [2] (setting [25]). Further, the zone of inhibition at 80 µg/disc in data set [3] (setting [25]) amounted to 11 mm; in data set [4] (setting [25]), 19 mm; in data set [5] (setting [25]), 20 mm; in [6] it was 25 mm.

As for `COC(=O)c1c(C)cc(O)c(C)c1O` [Methyl-β-orcinolcarboxylate, methyl-β-orcinolcarboxylate], the “growth inhibition of the wild type strain (in words)” value in [1] (wild type Candida albicans) was “inactive”. Moreover, the zone of inhibition at 40 µg/disc in [10] (setting [25]) came out at 1 mm; in data set [11] (setting [25]), 2 mm; in [12] (setting [25]), 2 mm; in [4] (setting [25]), 2 mm; in data set [5] (setting [25]) it was 2 mm. Moreover, the zone of inhibition at 80 µg/disc in [10] (setting [25]) turned out to be 2 mm; in data set [11] (setting [25]), 4 mm; in data set [12] (setting [25]), 5 mm; in data set [13] (setting [25]), 4 mm; in [2] (setting [25]), 4 mm; in [3] (setting [25]), 3 mm. The zone of inhibition at 80 µg/disc in data set [4] (setting [25]) is 6 mm; in data set [5] (setting [25]) it was 7 mm; in [7], 2 mm. Further, the zone of inhibition at 320 µg/disc in data set [10] (setting [25]) was found to be 4 mm; in data set [11] (setting [25]), 5 mm; in data set [12] (setting [25]), 7 mm; in [13] (setting [25]) it was 6 mm; in data set [2] (setting [25]), 6 mm; in data set [3] (setting [25]) it was 4 mm. Besides, the zone of inhibition at 320 µg/disc in [4] (setting [25]) and in [5] (setting [25]) was 8 mm in each case. Besides, the “Net zone of growth inhibition” value in data set [8] and in data set [9] was 6 mm in each case. Moreover, the IC50 was 1 µg/mL (≈ 5.1 µM) in [14]; 1 µg/mL (≈ 5.1 µM) in [15]; 0.025 µg/mL (≈ 0.127 µM) in data set [17]; 1.5 µg/mL (≈ 7.65 µM) in data set [18]; 0.04 µg/mL (≈ 0.204 µM) in data set [19]. For the same compound, the IC90 was determined as 5 µg/mL (≈ 25.5 µM) in data set [14]; 5.5 µg/mL (≈ 28 µM) in data set [16]; 4 µg/mL (≈ 20.4 µM) in [17]; 3.5 µg/mL (≈ 17.8 µM) in data set [18]; 4.5 µg/mL (≈ 22.9 µM) in data set [19]. In data set [20], the ergosterol-binding property result was “does not possess ergosterol-binding property”. In [21], the “activity against drug resistant strains of C. albicans (in words)” value is on record as “able to inhibit the growth of drug resistant strains in a dose dependant manner”. Further, the “growth inhibition of polyene drug resistant Saccharomyces cerevisiae (in words)” value in data set [22] is “able to specifically inhibit the growth”. The “growth inhibition of yeast strains such as Saccharomyces cerevisiae (in words)” value in data set [23] is recorded as “inhibit the growth”.

With `C[C@@H]1[C@H](O)[C@@H](C)/C=C/C=C/CC/C=C/C=C/C=C/C=C/C(O[C@H]2O[C@H](C)[C@@H](O)[C@H](N)[C@@H]2O)CC2O[C@](O)(CC(O)C(O)CCC(O)CC(O)CC(O)CC(=O)O[C@H]1C)CC(O)C2C(=O)O` (some centres unmarked) [Nystatin], the “Net zone of growth inhibition” value in data set [1] (setting [24]) came to 22 mm; in data set [10] (Amph A8R, 80 μg/disc) it was 3 mm; in data set [11] (Amph C6R, 80 μg/disc), 4 mm; in data set [12] (Amph C7R, 80 μg/disc) it was 2 mm; in data set [13] (Amph D1R, 80 μg/disc), 4 mm; in data set [2] (Clo 28R, 80 μg/disc), 21 mm. Further, the “Net zone of growth inhibition” value in data set [3] (Clo 31R, 80 μg/disc) was 17 mm; in [4] (NYS 26R, 80 μg/disc), 9 mm; in data set [5] (NYS 4R, 80 μg/disc) it was 8 mm; in [6] (Amph 100R, 80 μg/disc) it was 13 mm; in [7], 23 mm; in data set [8] it was 16 mm. Also, in data set [9], the “Net zone of growth inhibition” value stood at 13 mm.

The term zone of inhibition denotes the size of the clear area around the sample on an inoculated plate. The IC50 is the concentration at which inhibition is half-maximal. The low end stands for higher potency, the high end for lower potency. Usually IC90 stands for the concentration at which the effect reaches the 90% level.
